In patent US9326986B2, “Quinazolinone, quinolone and related analogs as sirtuin modulators” (GLAXOSMITHKLINE LLC, priority 2008, dated 2016):

Biological target: T1, SIRT1 (Homo sapiens, UniProt Q96EB6)
T1 sequence (Q96EB6 1-747): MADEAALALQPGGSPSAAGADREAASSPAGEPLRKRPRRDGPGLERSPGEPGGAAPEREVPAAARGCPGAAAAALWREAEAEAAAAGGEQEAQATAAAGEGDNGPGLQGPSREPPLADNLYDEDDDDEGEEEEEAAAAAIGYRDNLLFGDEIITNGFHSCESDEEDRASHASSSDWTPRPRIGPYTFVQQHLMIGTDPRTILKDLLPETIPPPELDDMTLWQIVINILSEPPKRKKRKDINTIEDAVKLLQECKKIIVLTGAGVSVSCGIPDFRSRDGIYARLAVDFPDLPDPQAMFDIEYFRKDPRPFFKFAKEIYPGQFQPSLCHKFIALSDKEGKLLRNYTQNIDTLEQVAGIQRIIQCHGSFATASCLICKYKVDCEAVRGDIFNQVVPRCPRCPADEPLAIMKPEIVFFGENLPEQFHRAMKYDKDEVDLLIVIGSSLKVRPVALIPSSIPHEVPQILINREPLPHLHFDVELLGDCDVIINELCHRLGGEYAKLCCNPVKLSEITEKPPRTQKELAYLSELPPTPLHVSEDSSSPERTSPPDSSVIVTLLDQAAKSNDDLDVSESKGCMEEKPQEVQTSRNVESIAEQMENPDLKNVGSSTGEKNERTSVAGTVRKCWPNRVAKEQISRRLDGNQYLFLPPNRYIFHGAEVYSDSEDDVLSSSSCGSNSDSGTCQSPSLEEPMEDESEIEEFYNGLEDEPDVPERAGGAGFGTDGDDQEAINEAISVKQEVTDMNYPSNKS
Test: Mass spectrometry based assay to identify modulators of SIRT1 activity (deacetylation of p53-based acetylated peptide)
Assay type: biochemical
Conditions: 10 nM SIRT1, 0.5 μM peptide substrate, 120 μM βNAD+, 25 minutes at 25° C.; for EC1.5 μM: SIRT1 activation
Description: A mass spectrometry based assay was used to identify modulators of SIRT1 activity. The mass spectrometry based assay utilizes a peptide having 20 amino acid residues as follows: Ac-EE-K(biotin)-GQSTSSHSK(Ac)NleSTEG-K(5TMR)-EE-NH2 (SEQ ID NO: 1) wherein K(Ac) is an acetylated lysine residue and Nle is a norleucine. The peptide is labeled with the fluorophore 5TMR (excitation 540 nm/emission 580 nm) at the C-terminus. The sequence of the peptide substrate is based on p53 with several modifications. In addition, the methionine residue naturally present in the sequence was replaced with the norleucine because the methionine may be susceptible to oxidation during synthesis and purification.
The mass spectrometry assay is conducted as follows: 0.5 μM peptide substrate and 120 μM βNAD^+ is incubated with 10 nM SIRT1 for 25 minutes at 25° C. in a reaction buffer (50 mM Tris-acetate pH 8, 137 mM NaCl, 2.7 mM KCl, 1 mM MgCl2, 5 mM DTT, 0.05% BSA). Test compounds may be added to the reaction as described above. […] After the 25 minute incubation with SIRT1, 10 μL of 10% formic acid is added to stop the reaction. Reactions are sealed and frozen for later mass spec analysis. Determination of the mass of the substrate peptide allows for precise determination of the degree of acetylation (i.e. starting material) as compared to deacetylated peptide (product).
A control for inhibition of sirtuin activity is conducted by adding 1 μL of 500 mM nicotinamide as a negative control at the start of the reaction (e.g., permits determination of maximum sirtuin inhibition). A control for activation of sirtuin activity is conducted using 10 nM of sirtuin protein, with 1 μL of DMSO in place of compound, to determine the amount of deacetylation of the substrate at a given timepoint within the linear range of the assay. This timepoint is the same as that used for test compounds and, within the linear range, the endpoint represents a change in velocity.
For the above assay, SIRT1 protein was expressed and purified as follows. […] The protein was expressed by induction with 1 mM IPTG as an N-terminal His-tag fusion protein at 18° C. overnight and harvested at 30,000×g. Cells were lysed with lysozyme in lysis buffer (50 mM Tris-HCl, 2 mM Tris[2-carboxyethyl]phosphine (TCEP), 10 μM ZnCl2, 200 mM NaCl) and further treated with sonication for 10 min for complete lysis. The protein was purified over a Ni-NTA column (Amersham) and fractions containing pure protein were pooled, concentrated and run over a sizing column (Sephadex S200 26/60 global). The peak containing soluble protein was collected and run on an Ion-exchange column (MonoQ). Gradient elution (200 mM-500 mM NaCl) yielded pure protein. This protein was concentrated and dialyzed against dialysis buffer (20 mM Tris-HCl, 2 mM TCEP) overnight. The protein was aliquoted and frozen at −80° C. until further use.
Sirtuin modulating compounds that activated SIRT1 were identified using the assay described above and are shown below in Tables 1 and 2. The EC1.5 values for the activating compounds are represented by A (EC1.5<1.0 μM), B (EC1.5 1-25 μM), C (EC1.5>25 μM). The percent maximum fold activation is represented by A (Fold activation>200%) or B (Fold Activation<200%).

| Structure (SMILES) | % Fold Act. (percent maximum fold activation) | EC1.5 μM |
| --- | --- | --- |
| Cn1c(-c2cccc(C(F)(F)F)c2)nc2c(C(=O)Nc3cccnc3)cccc2c1=O [Compound 265] | A (Fold activation>200%) | B (EC1.5 1-25 μM) |
| Cn1c(-c2cccc(C(F)(F)F)c2)nc2c(C(=O)Nc3ccncc3)cccc2c1=O [Compound 266] | A (Fold activation>200%) | B (EC1.5 1-25 μM) |
| Cn1cc(C(=O)Nc2cccc3c(=O)n(C)c(-c4cccc(C(F)(F)F)c4)nc23)cn1 [Compound 268] | B (Fold Activation<200%) | C (EC1.5>25 μM) |
| CCn1c(-c2cccc(C(F)(F)F)c2)nc2c(C(=O)Nc3ccccn3)cccc2c1=O [Compound 269] | B (Fold Activation<200%) | B (EC1.5 1-25 μM) |
| CCCn1c(-c2cccc(C(F)(F)F)c2)nc2c(C(=O)Nc3ccccn3)cccc2c1=O [Compound 270] | B (Fold Activation<200%) | C (EC1.5>25 μM) |
| CC(C)Cn1c(-c2cccc(C(F)(F)F)c2)nc2c(C(=O)Nc3ccccn3)cccc2c1=O [Compound 271] | B (Fold Activation<200%) | B (EC1.5 1-25 μM) |
| O=C(Nc1ccccn1)c1cccc2c(=O)n(CCN3CCCC3)c(-c3cccc(C(F)(F)F)c3)nc12 [Compound 272] | B (Fold Activation<200%) | B (EC1.5 1-25 μM) |
| Cn1c(-c2cccc(C(F)(F)F)c2)nc2c(C(=O)Nc3ccc(OCC(O)CO)cc3)cccc2c1=O (stereo not shown) [Compound 273] | A (Fold activation>200%) | A (EC1.5<1.0 μM) |
| Cn1c(-c2ccc(CN3CCCC3)cc2)nc2c(C(=O)Nc3ccccn3)cccc2c1=O [Compound 275, 3-methyl-4-oxo-N-(pyridin-2-yl)-2-(4-(pyrrolidin-1-ylmethyl)phenyl)-3,4-dihydroquinazoline-8-carboxamide] | B (Fold Activation<200%) | C (EC1.5>25 μM) |
| Cn1c(-c2cccc(CN3CCCC3)c2)nc2c(C(=O)Nc3ccccn3)cccc2c1=O [Compound 276] | B (Fold Activation<200%) | B (EC1.5 1-25 μM) |
| Cn1c(-c2cnccn2)nc2c(NC(=O)c3cnccn3)cccc2c1=O [Compound 281] | B (Fold Activation<200%) | C (EC1.5>25 μM) |
| Cc1ncsc1-c1nc2c(NC(=O)c3cnccn3)cccc2c(=O)n1C [Compound 284] | A (Fold activation>200%) | B (EC1.5 1-25 μM) |
| Cn1c(-c2cccc(C(F)(F)F)c2)nc2c(C(=O)Nc3cccc(OCC(O)CO)c3)cccc2c1=O (stereo not shown) [Compound 286] | A (Fold activation>200%) | A (EC1.5<1.0 μM) |
| Cc1nc(C)c(-c2nc3c(NC(=O)c4cnccn4)cccc3c(=O)n2C)s1 [Compound 287, N-(2-(2,4-dimethylthiazol-5-yl)-3-methyl-4-oxo-3,4-dihydroquinazolin-8-yl)pyrazine-2-carboxamide] | A (Fold activation>200%) | B (EC1.5 1-25 μM) |
| Cn1cnc(-c2nc3c(NC(=O)c4cnccn4)cccc3c(=O)n2C)c1 [Compound 288] | B (Fold Activation<200%) | C (EC1.5>25 μM) |
| Cn1cc(-c2nc3c(NC(=O)c4cnccn4)cccc3c(=O)n2C)cn1 [Compound 291] | B (Fold Activation<200%) | C (EC1.5>25 μM) |
| Cn1c(-c2cccc(C(F)(F)F)c2)nc2c(C(=O)Nc3cccc(N4CCOCC4)n3)cccc2c1=O [Compound 293] | A (Fold activation>200%) | A (EC1.5<1.0 μM) |
| CCc1nnc(NC(=O)c2cccc3c(=O)n(C)c(-c4cccc(C(F)(F)F)c4)nc23)s1 [Compound 294] | A (Fold activation>200%) | A (EC1.5<1.0 μM) |
| Cc1cc(NC(=O)c2cccc3c(=O)n(C)c(-c4cccc(C(F)(F)F)c4)nc23)n(C)n1 [Compound 295] | B (Fold Activation<200%) | C (EC1.5>25 μM) |
| Cc1cc(NC(=O)c2cccc3c(=O)n(C)c(-c4cccc(C(F)(F)F)c4)nc23)sn1 [Compound 296] | B (Fold Activation<200%) | B (EC1.5 1-25 μM) |

Next, values leading:

| % Fold Act. (percent maximum fold activation) | EC1.5 μM | Structure (SMILES) |
| --- | --- | --- |
| A (Fold activation>200%) | A (EC1.5<1.0 μM) | CC(C)n1c(-c2cccc(C(F)(F)F)c2)nc2c(NC(=O)c3cnccn3)cccc2c1=O [Compound 267] |
| A (Fold activation>200%) | A (EC1.5<1.0 μM) | Cn1c(-c2ccccc2OC(F)(F)F)nc2c(NC(=O)c3cnccn3)cccc2c1=O [Compound 274] |
| B (Fold Activation<200%) | C (EC1.5>25 μM) | Cn1c(-c2ccccn2)nc2c(NC(=O)c3cnccn3)cccc2c1=O [Compound 277] |
| B (Fold Activation<200%) | B (EC1.5 1-25 μM) | Cn1c(-c2cccnc2)nc2c(NC(=O)c3cnccn3)cccc2c1=O [Compound 278] |
| B (Fold Activation<200%) | C (EC1.5>25 μM) | Cn1c(-c2ccncc2)nc2c(NC(=O)c3cnccn3)cccc2c1=O [Compound 279] |
| B (Fold Activation<200%) | C (EC1.5>25 μM) | Cn1c(-c2ccncn2)nc2c(NC(=O)c3cnccn3)cccc2c1=O [Compound 280] |
| B (Fold Activation<200%) | C (EC1.5>25 μM) | Cn1c(-c2ncccn2)nc2c(NC(=O)c3cnccn3)cccc2c1=O [Compound 282] |
| B (Fold Activation<200%) | C (EC1.5>25 μM) | Cn1c(-c2cscn2)nc2c(NC(=O)c3cnccn3)cccc2c1=O [Compound 283] |
| B (Fold Activation<200%) | B (EC1.5 1-25 μM) | Cn1cncc1-c1nc2c(NC(=O)c3cnccn3)cccc2c(=O)n1C [Compound 285] |
| B (Fold Activation<200%) | C (EC1.5>25 μM) | Cn1ccnc1-c1nc2c(NC(=O)c3cnccn3)cccc2c(=O)n1C [Compound 289] |
| B (Fold Activation<200%) | C (EC1.5>25 μM) | Cn1ccc(-c2nc3c(NC(=O)c4cnccn4)cccc3c(=O)n2C)n1 [Compound 290] |
| B (Fold Activation<200%) | C (EC1.5>25 μM) | Cn1nccc1-c1nc2c(NC(=O)c3cnccn3)cccc2c(=O)n1C [Compound 292] |
